Data as given in patent publication US20040253576A1 (priority 2003, published 2004).
Entries after “also recorded” stand apart in the source; their conditions may differ. Like-named read-outs stand apart in the source and are kept apart here.

Assays:
MSNs from the NAcb shell [1] = assay type: cell-based, Sprague-Dawley rats; conditions: for effect on increase in spike firing elicited by D1/D2 co-activation: dialysis of neurons; for effect on activation of spike firing by forskolin: peptide in intracellular solution; for effect on DA-mediated changes in spike firing / effect on spike firing, intracellular perfusion alone: 1 μM, intracellular perfusion
[2] = tested on: total potassium currents, comprised of IAs, delayed-rectifier, and non-inactivating potassium currents; assay: voltage-clamp measurement of total evoked potassium current; assay type: cell-based, Sprague-Dawley rats
MSNs from the NAcb shell [3] = tested on: MSNs from the NAcb shell
Procedure: Patch-clamping was performed using visualized infrared-DIC with 2.5 to 3.5 MΩ electrodes. Current pulses were applied using Clampex 8.0 and an Axo-1D patch amplifier in current-clamp mode (Axon Instruments, Foster City, Calif.). Upon breaking into neurons, the resting membrane potentials were between −95 and −80 mV. […] Series resistance correction was 15-20 MΩ. To record EPSPs, a bipolar stimulating electrode was placed ˜100 μM lateral to the recording electrode. Afferents were stimulated with 10 pulses at 20 Hz (20 μs) every 30 seconds using a Master 8 (AMPI, Jerusalem, Israel), and EPSPs were recorded using Clampex in current-clamp mode.
We also performed a within-cell comparison of the spike firing change and the change in input resistance or Vm-rest.

N[C@@H](CCC(=O)O)C(=O)O [glutamate]
effect on spike rate after exposure to 60 μM 4-AP (MSNs from the NAcb shell [1]; 200 μM, after 60 μM 4-AP): further increased spike rate

YEDSYEDISAYLLSKNNAIPR [FVIII]
effect on increase in spike firing elicited by D1/D2 co-activation (MSNs from the NAcb shell [1]; 200 μM): had no effect | effect on activation of spike firing by forskolin (MSNs from the NAcb shell [1]): not prevented

Nc1ccncc1 [4-AP, 4-aminopyridine]
effect on DA-mediated enhancement of spike firing (occlusion) (MSNs from the NAcb shell [1]; 60 μM pre-exposure): significantly occluded the effects of DA | effect on spike firing (MSNs from the NAcb shell [1]; 5-60 μM): increased spike firing in a dose-dependent manner; also recorded: significantly enhanced spike firing | change in spike firing with DA after pre-exposure to IAs inhibitor (MSNs from the NAcb shell [1]; inhibitor 10 μM): 11.4+/−5.1% | effect on potassium current evoked by a 300 ms pulse to 0 mV ([2]; 10 μM): small but significant inhibition

DALRIQMEERFMASNPSKVSYEPIT [SPβγ]
effect on increase in spike firing elicited by D1/D2 co-activation (MSNs from the NAcb shell [1]; 200 μM): prevented | effect on activation of spike firing by forskolin (MSNs from the NAcb shell [1]): not prevented

Norokadaone
effect on DA-mediated changes in spike firing (MSNs from the NAcb shell [1]): did not prevent the effects of DA | effect on spike firing, intracellular perfusion alone (MSNs from the NAcb shell [1]): had no effect by itself

CCCN1CCC[C@@H]2Cc3n[nH]cc3C[C@H]21 [quinpirole]
effect on spike firing in cells perfused with Gβγ (MSNs from the NAcb shell [1]): not | effect on spike firing, agonist alone (MSNs from the NAcb shell [1]): not altered | effect on spike rate, agonist alone (MSNs from the NAcb shell [1]): no effect

CN1CCc2cc(Cl)c(O)cc2[C@@H](c2ccccc2)C1 [SCH 23990]
change in spike firing with DA after pre-exposure to antagonist (MSNs from the NAcb shell [1]; antagonist 1 μM, pre-exposure): −0.5+/−4.6%

CCc1cc(Cl)c(OC)c(C(=O)NC[C@@H]2CCCN2CC)c1O [eticlopride]
change in spike firing with DA after pre-exposure to antagonist (MSNs from the NAcb shell [1]; antagonist 300 nM, pre-exposure): 2.5+/−5.5% | effect on DA-mediated enhancement of spike firing (MSNs from the NAcb shell [1]; antagonist 3 μM, pre-exposure): prevented

CC(N)Cc1ccccc1 (stereo not shown) [amphetamine]
change in spike firing (MSNs from the NAcb shell [1]; 10 μM, bath application): 18.5+/−5.4%

NCCc1ccc(O)c(O)c1 [DA, Dopamine]
effect on spike firing (MSNs from the NAcb shell [1]): significantly and reversibly elevated spike firing | enhancement in spike firing by DA with calcium channels blocked (MSNs from the NAcb shell [1]; pre-incubation with ω-conotoxin GVIA 500 nM and ω-agatoxin IVA 250 nM, continuous nifedipine 30 μM): 24.0+/−5.0% | effect on input resistance (R-input) (MSNs from the NAcb shell [3]): no significant changes | effect on resting membrane potential (Vm-rest) (MSNs from the NAcb shell [3]): no significant changes | effect on potassium current evoked by a 300 ms pulse to 0 mV ([2]; 75 μM): small but significant inhibition

C=C1[C@@H](O)[C@@H]2O[C@]3(CC[C@H](/C=C/[C@@H](C)[C@@H]4CC(C)=C[C@@]5(O[C@H](C[C@@](C)(O)C(=O)O)CC[C@H]5O)O4)O3)CC[C@H]2O[C@@H]1[C@@H](O)C[C@H](C)[C@H]1O[C@@]2(CCCCO2)CC[C@H]1C [okadaic acid]
effect on DA-mediated changes in spike firing (MSNs from the NAcb shell [1]): occluded | effect on spike firing, intracellular perfusion alone (MSNs from the NAcb shell [1]): significantly enhanced | firing change with okadaic acid in the presence of 4-AP (MSNs from the NAcb shell [1]; ˜13 minutes pre-exposure to 60 μM 4-AP): 16+/−4.3%

Nc1ncnc2c1ncn2[C@@H]1O[C@@H]2CO[P@@](O)(=S)O[C@H]2[C@H]1O [Rp-cAMPS]
effect on spike firing when added during the DA response (MSNs from the NAcb shell [1]; 100 μM, during plateau DA response): significantly reduced spike firing to pre-DA levels

C=C[C@@]1(C)CC(=O)[C@@H]2[C@@]3(C)CCCC(C)(C)[C@@H]3[C@H](O)[C@H](OC(C)=O)[C@@]2(C)O1 [dideoxy-forskolin]
effect on spike firing (MSNs from the NAcb shell [1]; 5 μM): had no effect

α-dendrotoxin (QPRRKLCILHRNPGRCYDKIPAFYYNQKKKQCERFDWSGCGGNSNRFKTIEECRRTCIG; UniProt P00980 1-59, looked up) [α-dtx]
effect on spike firing (MSNs from the NAcb shell [1]; 0.5 μM): significantly enhanced spike firing | effect on DA-mediated enhancement of spike firing (occlusion) (MSNs from the NAcb shell [1]; 0.5 μM pre-exposure): significantly occluded the effects of DA

CCCN1CCc2cccc3c2[C@H]1Cc1ccc(O)c(O)c1-3 [NPA, propylnorapomorphine]
effect on spike firing, agonist alone (MSNs from the NAcb shell [1]; 3 μM, alone): not altered

Oc1cc2c(c(Cl)c1O)CCNCC2c1ccccc1 (stereo not shown) [SKF 81297]
effect on spike firing in cells perfused with Gβγ (MSNs from the NAcb shell [1]; 10 μM, intracellular Gβγ subunits 20 nM): significantly enhanced spike firing | effect on spike firing, agonist alone (MSNs from the NAcb shell [1]; 1-10 μM, alone): not altered | change in spike firing in neurons perfused with Gβγ vehicle plus maltose binding protein (MSNs from the NAcb shell [1]; control perfusion without Gβγ): −2.5+/−2.5%
